Measured values published in PubChem BioAssay (NCI).
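Five compound concentrations were applied to cells in 96-well plates for 48 hours; endpoints were derived by simple linear interpolation of the resulting dose-response curve. GI50 is the concentration that inhibits growth by half. Definition used: TGI = concentration required for complete inhibition of growth.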

Assays:
Assay in all cases: NCI anticancer screen, dose series, 48 h; in the data active = GI50 below about 0.43 µM; inactive = the rest
UACC-62 melanoma = test system: UACC-62 melanoma
MDA-MB-231 breast = test system: MDA-MB-231 breast
HCC-2998 colon = test system: HCC-2998 colon
U251 CNS = test system: U251 CNS
SNB-19 CNS = test system: SNB-19 CNS
MCF7 breast = test system: MCF7 breast
TK-10 renal = test system: TK-10 renal
NCI-H226 lung = test system: NCI-H226 lung
SW-620 colon = test system: SW-620 colon
UACC-257 melanoma = test system: UACC-257 melanoma
A549 NSCLC = test system: A549 NSCLC
NCI/ADR-RES ovarian = test system: NCI/ADR-RES ovarian
BT-549 breast = test system: BT-549 breast
HCT-15 colon = test system: HCT-15 colon
RPMI-8226 leukemia = test system: RPMI-8226 leukemia
HCT-116 colon = test system: HCT-116 colon
SK-MEL-5 melanoma = test system: SK-MEL-5 melanoma
LOX IMVI melanoma = test system: LOX IMVI melanoma
PC-3 prostate = test system: PC-3 prostate
SF-295 CNS = test system: SF-295 CNS
OVCAR-3 ovarian = test system: OVCAR-3 ovarian
K-562 leukemia = test system: K-562 leukemia
COLO 205 colon = test system: COLO 205 colon
DU-145 prostate = test system: DU-145 prostate
HOP-62 NSCLC = test system: HOP-62 NSCLC
OVCAR-5 ovarian = test system: OVCAR-5 ovarian
KM12 colon = test system: KM12 colon
OVCAR-4 ovarian = test system: OVCAR-4 ovarian
SF-268 CNS = test system: SF-268 CNS
HS 578T breast = test system: HS 578T breast
A498 renal = test system: A498 renal
ACHN renal = test system: ACHN renal
RXF 393 renal = test system: RXF 393 renal
M14 melanoma = test system: M14 melanoma
UO-31 renal = test system: UO-31 renal
OVCAR-8 ovarian = test system: OVCAR-8 ovarian
CCRF-CEM leukemia = test system: CCRF-CEM leukemia
IGROV1 ovarian = test system: IGROV1 ovarian
HT29 colon = test system: HT29 colon
CAKI-1 renal = test system: CAKI-1 renal
HL-60(TB) leukemia = test system: HL-60(TB) leukemia
MDA-MB-435 = test system: MDA-MB-435
NCI-H23 lung = test system: NCI-H23 lung
SK-OV-3 ovarian = test system: SK-OV-3 ovarian
SR leukemia = test system: SR leukemia
MOLT-4 leukemia = test system: MOLT-4 leukemia
SNB-75 CNS = test system: SNB-75 CNS
SN12C renal = test system: SN12C renal
SK-MEL-28 melanoma = test system: SK-MEL-28 melanoma
NCI-H460 lung = test system: NCI-H460 lung
T-47D breast = test system: T-47D breast
786-0 renal = test system: 786-0 renal
NCI-H522 lung = test system: NCI-H522 lung
SF-539 CNS = test system: SF-539 CNS
SK-MEL-2 melanoma = test system: SK-MEL-2 melanoma
MALME-3M melanoma = test system: MALME-3M melanoma
EKVX NSCLC = test system: EKVX NSCLC
HOP-92 NSCLC = test system: HOP-92 NSCLC

Cn1cc(C2=C(c3cccnc3)C(=O)NC2=O)c2ccccc21
25 µM: TGI (SK-MEL-2 melanoma)
> 19.2 µM: TGI (NCI-H226 lung)
> 22.5 µM: TGI (SK-MEL-5 melanoma)
> 17.9 µM: TGI (RXF 393 renal)
> 25 µM: TGI (UACC-62 melanoma) | TGI (MDA-MB-231 breast) | TGI (HCC-2998 colon) | TGI (U251 CNS) | TGI (SNB-19 CNS) | TGI (MCF7 breast) | TGI (TK-10 renal) | TGI (SW-620 colon) | TGI (UACC-257 melanoma) | TGI (A549 NSCLC) | TGI (NCI/ADR-RES ovarian) | TGI (BT-549 breast) | TGI (HCT-15 colon) | TGI (RPMI-8226 leukemia) | TGI (HCT-116 colon) | TGI (LOX IMVI melanoma) | TGI (PC-3 prostate) | TGI (SF-295 CNS) | TGI (OVCAR-3 ovarian) | TGI (K-562 leukemia) | TGI (COLO 205 colon) | TGI (DU-145 prostate) | TGI (HOP-62 NSCLC) | TGI (OVCAR-5 ovarian) | TGI (KM12 colon) | TGI (OVCAR-4 ovarian) | TGI (SF-268 CNS) | TGI (HS 578T breast) | TGI (ACHN renal) | TGI (M14 melanoma) | TGI (UO-31 renal) | TGI (OVCAR-8 ovarian) | TGI (CCRF-CEM leukemia) | TGI (IGROV1 ovarian) | TGI (HT29 colon) | TGI (CAKI-1 renal) | TGI (HL-60(TB) leukemia) | TGI (MDA-MB-435) | TGI (NCI-H23 lung) | TGI (SK-OV-3 ovarian) | TGI (SR leukemia) | TGI (MOLT-4 leukemia) | TGI (SNB-75 CNS) | TGI (SN12C renal) | TGI (SK-MEL-28 melanoma) | TGI (NCI-H460 lung) | TGI (T-47D breast) | TGI (786-0 renal) | TGI (NCI-H522 lung) | TGI (SF-539 CNS) | TGI (MALME-3M melanoma)
inactive: GI50 (UACC-62 melanoma) > 25 µM | GI50 (MDA-MB-231 breast) > 23.8 µM | GI50 (HCC-2998 colon) > 25 µM | GI50 (U251 CNS) 18.8 µM | GI50 (SNB-19 CNS) > 25 µM | GI50 (MCF7 breast) 8.45 µM | GI50 (TK-10 renal) > 25 µM | GI50 (NCI-H226 lung) 8.15 µM | GI50 (SW-620 colon) > 25 µM | GI50 (UACC-257 melanoma) > 25 µM | GI50 (A549 NSCLC) > 25 µM | GI50 (NCI/ADR-RES ovarian) > 25 µM | GI50 (BT-549 breast) > 25 µM | GI50 (HCT-15 colon) > 25 µM | GI50 (RPMI-8226 leukemia) > 25 µM | GI50 (HCT-116 colon) 15 µM | GI50 (SK-MEL-5 melanoma) > 12 µM | GI50 (LOX IMVI melanoma) > 20.9 µM | GI50 (PC-3 prostate) 17.1 µM | GI50 (SF-295 CNS) 8.13 µM | GI50 (OVCAR-3 ovarian) 15 µM | GI50 (K-562 leukemia) > 25 µM | GI50 (COLO 205 colon) > 18.3 µM | GI50 (DU-145 prostate) > 25 µM | GI50 (HOP-62 NSCLC) > 21.9 µM | GI50 (OVCAR-5 ovarian) > 25 µM | GI50 (KM12 colon) > 20.6 µM | GI50 (OVCAR-4 ovarian) > 22.2 µM | GI50 (SF-268 CNS) > 25 µM | GI50 (HS 578T breast) 8.14 µM | GI50 (A498 renal) 9.03 µM | GI50 (ACHN renal) 14.1 µM | GI50 (RXF 393 renal) 5.63 µM | GI50 (M14 melanoma) > 25 µM | GI50 (UO-31 renal) > 25 µM | GI50 (OVCAR-8 ovarian) > 25 µM | GI50 (CCRF-CEM leukemia) 10.5 µM | GI50 (IGROV1 ovarian) 24.3 µM | GI50 (HT29 colon) > 25 µM | GI50 (CAKI-1 renal) > 17.4 µM | GI50 (HL-60(TB) leukemia) > 25 µM | GI50 (MDA-MB-435) > 25 µM | GI50 (NCI-H23 lung) > 25 µM | GI50 (SK-OV-3 ovarian) > 22.9 µM | GI50 (SR leukemia) 15.5 µM | GI50 (MOLT-4 leukemia) > 21.6 µM | GI50 (SNB-75 CNS) 0.882 µM | GI50 (SN12C renal) > 25 µM | GI50 (SK-MEL-28 melanoma) > 25 µM | GI50 (NCI-H460 lung) > 23.1 µM | GI50 (T-47D breast) 14.6 µM | GI50 (786-0 renal) > 25 µM | GI50 (NCI-H522 lung) > 25 µM | GI50 (SF-539 CNS) 11.4 µM | GI50 (SK-MEL-2 melanoma) > 13 µM | GI50 (MALME-3M melanoma) > 25 µM
> 22.9 µM: TGI (A498 renal)

COC(=O)c1ccc(NC(=O)Nc2ccc3oc(=O)c4ccccc4c3c2)cc1
41.9 µM: TGI (786-0 renal)
96.2 µM: TGI (SNB-75 CNS)
29.7 µM: TGI (HS 578T breast)
> 100 µM: TGI (UACC-62 melanoma) | TGI (U251 CNS) | TGI (MCF7 breast) | TGI (EKVX NSCLC) | TGI (TK-10 renal) | TGI (NCI-H226 lung) | TGI (UACC-257 melanoma) | TGI (A549 NSCLC) | TGI (NCI/ADR-RES ovarian) | TGI (BT-549 breast) | TGI (HCT-15 colon) | TGI (RPMI-8226 leukemia) | TGI (HCT-116 colon) | TGI (LOX IMVI melanoma) | TGI (PC-3 prostate) | TGI (SF-295 CNS) | TGI (K-562 leukemia) | TGI (COLO 205 colon) | TGI (DU-145 prostate) | TGI (OVCAR-5 ovarian) | TGI (KM12 colon) | TGI (OVCAR-4 ovarian) | TGI (ACHN renal) | TGI (M14 melanoma) | TGI (UO-31 renal) | TGI (OVCAR-8 ovarian) | TGI (IGROV1 ovarian) | TGI (HT29 colon) | TGI (CAKI-1 renal) | TGI (NCI-H23 lung) | TGI (SK-OV-3 ovarian) | TGI (SR leukemia) | TGI (SN12C renal) | TGI (SK-MEL-28 melanoma) | TGI (NCI-H460 lung) | TGI (T-47D breast) | TGI (NCI-H522 lung) | TGI (SF-539 CNS)
inactive: GI50 (UACC-62 melanoma) 82.2 µM | GI50 (MDA-MB-231 breast) 23.7 µM | GI50 (HCC-2998 colon) 27.1 µM | GI50 (U251 CNS) 30.9 µM | GI50 (SNB-19 CNS) 33 µM | GI50 (MCF7 breast) 35.2 µM | GI50 (EKVX NSCLC) > 100 µM | GI50 (TK-10 renal) > 100 µM | GI50 (NCI-H226 lung) 64.1 µM | GI50 (SW-620 colon) 30.9 µM | GI50 (UACC-257 melanoma) 60.7 µM | GI50 (A549 NSCLC) > 100 µM | GI50 (NCI/ADR-RES ovarian) 41.7 µM | GI50 (HOP-92 NSCLC) 28.5 µM | GI50 (BT-549 breast) 28.1 µM | GI50 (HCT-15 colon) > 100 µM | GI50 (RPMI-8226 leukemia) 20.3 µM | GI50 (HCT-116 colon) 32.4 µM | GI50 (SK-MEL-5 melanoma) 5.21 µM | GI50 (LOX IMVI melanoma) 39.2 µM | GI50 (PC-3 prostate) 36.2 µM | GI50 (SF-295 CNS) 55.9 µM | GI50 (OVCAR-3 ovarian) 29.5 µM | GI50 (K-562 leukemia) 56.2 µM | GI50 (COLO 205 colon) 32.5 µM | GI50 (DU-145 prostate) 56.1 µM | GI50 (HOP-62 NSCLC) 17.8 µM | GI50 (OVCAR-5 ovarian) 97.7 µM | GI50 (KM12 colon) > 100 µM | GI50 (OVCAR-4 ovarian) 33.5 µM | GI50 (SF-268 CNS) 26.2 µM | GI50 (ACHN renal) 29.5 µM | GI50 (M14 melanoma) 31.8 µM | GI50 (UO-31 renal) 62.5 µM | GI50 (OVCAR-8 ovarian) 36.6 µM | GI50 (IGROV1 ovarian) 37.8 µM | GI50 (HT29 colon) 28 µM | GI50 (CAKI-1 renal) 70.9 µM | GI50 (HL-60(TB) leukemia) 0.714 µM | GI50 (MDA-MB-435) 27.9 µM | GI50 (NCI-H23 lung) 71.4 µM | GI50 (SK-OV-3 ovarian) 40.3 µM | GI50 (SR leukemia) 10.9 µM | GI50 (MOLT-4 leukemia) 17.6 µM | GI50 (SNB-75 CNS) 32 µM | GI50 (SN12C renal) 44.5 µM | GI50 (SK-MEL-28 melanoma) 76 µM | GI50 (NCI-H460 lung) 41.6 µM | GI50 (T-47D breast) > 100 µM | GI50 (786-0 renal) 18 µM | GI50 (NCI-H522 lung) 27.8 µM | GI50 (SF-539 CNS) 62.5 µM | GI50 (MALME-3M melanoma) 28.7 µM
17.3 µM: TGI (SK-MEL-5 melanoma)
74 µM: TGI (HCC-2998 colon)
14 µM: TGI (HL-60(TB) leukemia)
62.1 µM: TGI (MOLT-4 leukemia)
39.6 µM: TGI (HOP-62 NSCLC)
active: GI50 (CCRF-CEM leukemia) 0.177 µM
71.2 µM: TGI (SF-268 CNS)
55.9 µM: TGI (MDA-MB-231 breast)
54.6 µM: TGI (OVCAR-3 ovarian)
89.8 µM: TGI (SNB-19 CNS)
80.9 µM: TGI (HOP-92 NSCLC)
73.7 µM: TGI (MALME-3M melanoma)
98.3 µM: TGI (SW-620 colon)
89.3 µM: TGI (MDA-MB-435)
21.7 µM: TGI (CCRF-CEM leukemia)
